Converted amounts (≈) assume the structure as drawn.
Tests used:
Assay in all cases: MIC values of wild type strains
Format in all cases: cell-based
[1] = system: Salmonella enterica subsp. enterica serovar Virchow; conditions: wild type strain Salmonella Virchow; unit assumed
[2] = system: Salmonella enterica subsp. enterica serovar Infantis; conditions: wild type strain Salmonella Infantis; unit assumed
[3] = system: Salmonella enterica subsp. enterica serovar Hadar; conditions: wild type strain Salmonella Hadar; unit assumed
[4] = system: Salmonella paratyphi B (var. L-tartrate+); conditions: wild type strain Salmonella paratyphi B (var. L-tartrate+); unit assumed
Campylobacter coli WS I = conditions: wild type strain Campylobacter coli WS I; unit assumed
Campylobacter coli WS II = conditions: wild type strain Campylobacter coli WS II; unit assumed
[5] = system: Campylobacter jejuni WS I; conditions: wild type strain Campylobacter jejuni WS I; unit assumed
[6] = system: Campylobacter jejuni WS II; conditions: wild type strain Campylobacter jejuni WS II; unit assumed

For `[H]/N=C(/N)N[C@H]1[C@H](O)[C@@H](O)[C@H](O[C@@H]2O[C@@H](C)[C@](O)(C=O)[C@H]2O[C@@H]2O[C@@H](CO)[C@H](O)[C@@H](O)[C@@H]2NC)[C@@H](N/C(N)=N\[H])[C@@H]1O` [Streptomycin], the MIC [1] was 12.5 µg/mL (≈ 21.5 µM), the MIC [2] was 12.5 µg/mL (≈ 21.5 µM) and the MIC [3] was 25 µg/mL (≈ 43 µM). For the same compound, the MIC [4] was 30 µg/mL (≈ 51.6 µM), the MIC (Campylobacter coli WS I) was 1 µg/mL (≈ 1.72 µM) and the MIC (Campylobacter coli WS II) was 1 µg/mL (≈ 1.72 µM). The MIC [5] was 2 µg/mL (≈ 3.44 µM) and the MIC [6] was 2 µg/mL (≈ 3.44 µM).

With `C[C@@H]1O[C@@H]1P(=O)(O)O` [fosfomycin] the MIC (Campylobacter coli WS I) was 25 µg/mL (≈ 181 µM), the MIC (Campylobacter coli WS II) was 25 µg/mL (≈ 181 µM) and the MIC [5] was 25 µg/mL (≈ 181 µM). For the same compound, the MIC [6] was 25 µg/mL (≈ 181 µM).

— patent US11904008B2, “Preparation of live vaccines” (priority 2012, dated 2024)
